Reference: publication PMC11477000, “Enantioselective Binding of Proton Pump Inhibitors to Alpha1-Acid Glycoprotein and Human Serum Albumin—A Chromatographic, Spectroscopic, and In Silico Study” (International Journal of Molecular Sciences, 2024)
Several values for one entry are separate records, joined by “and”; a condition that tells them apart may be missing. Equal entries are not always repeated. Where two headings read alike, the source gives them in different places.

Legend:
BSA = conditions: racemic, ref [39]; cited from earlier work
[1] = target: human serum albumin (HSA) (Homo sapiens, UniProt P02768); experiment: Bound percentage by HPLC on HSA column, extrapolation to zero organic modifier; assay type: in vitro ADME; conditions: for Bound percentage (b%), average: average of IPA, EtOH, MeOH
Sequence of human serum albumin (HSA) (P02768 25-609): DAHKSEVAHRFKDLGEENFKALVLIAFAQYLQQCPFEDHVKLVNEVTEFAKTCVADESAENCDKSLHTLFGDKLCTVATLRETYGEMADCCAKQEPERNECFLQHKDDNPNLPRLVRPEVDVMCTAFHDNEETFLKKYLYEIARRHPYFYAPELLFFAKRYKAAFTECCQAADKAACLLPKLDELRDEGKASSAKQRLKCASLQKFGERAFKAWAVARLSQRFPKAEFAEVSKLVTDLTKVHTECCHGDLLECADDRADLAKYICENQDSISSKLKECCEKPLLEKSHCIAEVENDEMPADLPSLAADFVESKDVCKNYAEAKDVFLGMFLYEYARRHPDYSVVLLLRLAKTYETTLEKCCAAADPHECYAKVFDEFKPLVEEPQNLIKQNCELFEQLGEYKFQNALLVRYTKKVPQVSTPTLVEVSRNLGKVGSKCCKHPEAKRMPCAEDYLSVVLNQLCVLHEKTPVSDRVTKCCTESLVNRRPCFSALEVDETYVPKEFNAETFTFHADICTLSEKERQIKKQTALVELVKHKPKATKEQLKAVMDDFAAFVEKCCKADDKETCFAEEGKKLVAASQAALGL
Procedure: (§1) Chromatographic columns containing proteins can be used to determine the percentage of drug binding. A plot of the natural logarithm of the retention factors against the proportion of organic modifiers was created. […] The intercept of these linear equations can be used to calculate the bound percentage according to Equation (4) (see in Section 3.2).
(§2) Chromatographic measurements were carried out on two separate HPLC systems. The AGP binding study was performed on a Waters 2695e chromatographic system paired with a Waters 2996 PDA detector, controlled by Empower 3 FR5 (Waters Corp., Milford, MA, USA), while the HSA binding study was performed on an Agilent 1100 HPLC system, consisting of an inline degasser (G1322A), a quaternary pump (G1311A), an automatic injector (G1329A) paired with sample thermostat (G1330A), a column thermostat (G1316A), and a diode array detector (G1315A) with Agilent Chemstation B04.03-SP2 software (Agilent, Bronnwald, Germany). For the binding studies, two protein-based chiral stationary phases were utilized. The chromatographic binding study for AGP was conducted on a ChromTech Chiral-AGP column (150 mm × 4.0 mm; ChromTech Ltd., Congleton, UK), while the binding study for HSA was performed on a Daicel Chiralpak HSA column (50 mm × 4.0 mm; Daicel Corp., Osaka, Japan). The detection wavelength was 210 nm for all measurements. The stock solutions of PPIs were prepared at a concentration of 1 mg/mL in MeOH. Subsequent dilutions were prepared using water. The injected samples were mixed and diluted from the stock solutions. The final concentration for the eutomer was 0.2 mg/mL, and for the distomer, it was 0.1 mg/mL. A volume of 2 μL was injected. To mitigate the instability of PPIs in aqueous solutions, the samples were kept at a temperature of 4 °C. Cooling the samples to 4 °C prevented significant decomposition for a period of 24 h. After 24 h, new samples were prepared for injection. Chromatographic parameters were calculated based on the following equations. The retention factor (k) was calculated as:(1) k=(tr−t0)/t0 where tr is the retention time of the investigated analyte, and t0 is the dead time, determined as the first peak appearance in the chromatogram. Resolution was calculated based on the following equation:(2) Rs=2(t2−t1)/(w1+w2) where t2 and t1 are the retention times of the second and first eluted enantiomers, respectively, while w is the peak width. The separation factor (α) was calculated as follows:(3) α=k2/k1 where k1 and k2 are the retention factors of the first- and second-eluting enantiomers, respectively. The k values were also used to calculate the protein-bound percentage (b%) using Equation (4):(4) b%=k/1+k×100

AGP = experiment: UV titration (Benesi–Hildebrand) with AGP; assay type: binding, human; conditions: n = 3, 1 μM AGP, pH 7.4 phosphate buffer, 24 °C, 278 nm; for Kd: human, pH 7.4, UV titration, read-out: logKAGP ± Stdev (logarithm of stability constant) (converted)
Procedure: (§3) The UV-Vis absorption assay is a straightforward and relatively simple method to examine the interactions between small molecules and macromolecules. Changes in the structure of the protein caused by the interacting ligand can lead to alterations in the absorption spectrum. […] Fixed wavelength measurements were conducted at the absorption maxima of AGP and HSA. […] The change in the absorbance and wavelength maximum in the UV spectra during the titration refers to the complex formation between proteins and PPIs. The Benesi–Hildebrand method was used to determine the stability constants based on Equation (7).
(§4) The absorption spectra were recorded on a Jasco V-750 spectrophotometer (Jasco, Tokyo, Japan) at 24 °C using 1.0 cm path-length quartz cuvettes. Then, 1 μM HSA and AGP were dissolved in a sodium phosphate buffer solution (pH 7.4; 0.1 M) and their concentration was kept constant. The PPIs were dissolved in DMSO, and further diluted with the AGP or HSA solution. Next, 1000 μL of 1 μM HSA and AGP solutions was titrated with the PPI stock solution in 1 μL steps. The concentration of the PPIs was set to 4.00, 7.98, 11.96, 15.94, 19.90, 23.86, 27.81, and 31.75 μM. The binding constants were determined using the Benesi–Hildebrand equation:(7) A0/A−A0=εPPI/εAPPI−εPPI+εPPI/εAPPI−εPPI×1/K×[C] where A0 is the absorbance of the HSA or AGP at 278 nm, A is the absorbance of the formed complex also at 278 nm, εPPI is the extinction coefficient of the actual PPI, εAPPI is the extinction coefficient of the albumin or AGP and PPI complex, K is the binding coefficient, and [C] is the concentration of the investigated PPI. The plot of A0/A − A0 versus C^−1 has a slope of K^−1. All experiments were performed in triplicate.

HSA [2] = target: T1, HSA (Homo sapiens, UniProt P02768); conditions: ref [43]; cited from earlier work
T1 construct: purchased Sigma-Aldrich
T1 sequence (P02768 25-609): as above

HSA [3] = target: T1, HSA; experiment: UV titration (Benesi–Hildebrand) with HSA; assay type: binding; conditions: n = 3, 1 μM HSA, pH 7.4 phosphate buffer, 24 °C, 278 nm, read-out: logKHSA ± Stdev. (logarithm of stability constant) (converted)
Procedure: as §3, §4

[4] = tested on: α1-acid glycoprotein (AGP); experiment: Bound percentage by HPLC on AGP column, extrapolation to zero organic modifier; assay type: in vitro ADME, human; conditions: for Bound percentage (b%), average: average of IPA, EtOH, MeOH
Procedure: as §1
as §2, with “Cooling the samples to 4 °C prevented significant decomposition for a period of 24 h.” left out

HSA [5] = target: T1, HSA; conditions: ref [41]; cited from earlier work
[6] = extrapolation to zero percent EtOH
[7] = extrapolation to zero percent IPA
[8] = extrapolation to zero percent MeOH

SMILES | logK (BSA) | Bound percentage (b%), average [1] | Bound percentage (b%) [1, 6] | Bound percentage (b%) [1, 7] | Bound percentage (b%) [1, 8] | Kd (AGP) | logK (HSA [2]) | Kd (HSA [3]) | logKAGP ± Stdev (logarithm of stability constant) (AGP; UV titration) | Bound percentage (b%), average [4] | Bound percentage (b%) [4, 6] | Bound percentage (b%) [4, 7] | Bound percentage (b%) [4, 8] | logK (HSA [5])
COc1ccnc(C[S+]([O-])c2nc3cc(-n4cccc4)ccc3[nH]2)c1C (centres unmarked) [Ilaprazole] | 5.63 |  |  |  |  |  |  |  |  |  |  |  |  | 
COc1ccnc(C[S+]([O-])c2nc3ccc(OC(F)F)cc3[nH]2)c1OC (centres unmarked) [Pantoprazole] | 5.04 |  |  |  |  |  |  |  |  |  |  |  |  | 
COc1ccc2[nH]c([S@+]([O-])Cc3ncc(C)c(OC)c3C)nc2c1 [R-omeprazole] |  | 91.76% and 91.76 ± 1.08% | 92.97% | 91.15% | 91.03% | 20.4 µM | 3.50 | 33.9 µM |  |  |  |  |  | 
COCCCOc1ccnc(C[S@@+]([O-])c2nc3ccccc3[nH]2)c1C [R-rabeprazole, dexrabeprazole] |  | 88.84% and 88.84 ± 0.59% | 88.85% | 88.24% | 89.42% | 31.6 µM |  | 46.8 µM | 4.59 ± 0.03 | 96.78% and 96.78 ± 1.77% | 96.69% | 98.60% | 95.07% | 
COc1ccc2nc([S@@+]([O-])Cc3ncc(C)c(OC)c3C)[nH]c2c1 [S-omeprazole, esomeprazole] |  | 91.76% and 91.76 ± 1.08% | 92.97% | 91.15% | 91.03% | 33.9 µM | 3.73 | 95.5 µM |  |  |  |  |  | 4.70
COCCCOc1ccnc(C[S@+]([O-])c2nc3ccccc3[nH]2)c1C [S-rabeprazole] |  | 88.84% and 88.84 ± 0.59% | 88.85% | 88.24% | 89.42% | 17.4 µM |  | 38 µM |  | 97.98% and 97.98 ± 1.51% | 98.17% | 99.39% | 96.39% | 
